These results are taken from PubChem BioAssay AID330 (DTP/NCI, 2004).

Where “and” joins values, the source holds several entries; their conditions need not be identical. Identical values can stand only once. Toxic doses and inconclusive results are not listed. Square brackets hold non-standard residues; d marks the D form. Peptide text beside a SMILES is read from it. * marks the point of attachment. ξ: configuration not given here. ξF = NC(Cc1ccccc1)C(=O)O; Cbz = O=C(OCc1ccccc1)*

The subject of this experiment is P388 leukemia ip, CD2F1 mice, survival T/C. Briefly: NCI In Vivo Anticancer Drug Screen. Data for tumor model P388 Leukemia (intraperitoneal) in CD2F1 (CDF1) mice. Particulars: endpoint: median survival time, higher = longer survival. Put shortly: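 Mice carrying the transplanted tumor received test compound or vehicle. Survival was recorded in each group, and the value is the treated-group measurement divided by that of the vehicle-treated control group.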

Setting [1] is: dose: 25.0 mg/kg/injection, schedule: Q01DX005 (ip), vehicle: saline with Tween-80.
[2] abbreviates: dose: 50.0 mg/kg/injection, schedule: Q01DX005 (ip), vehicle: saline with Tween-80.
Where [3] appears, read: dose: 100.0 mg/kg/injection, schedule: Q01DX005 (ip), vehicle: saline with Tween-80.
[4] abbreviates: dose: 200.0 mg/kg/injection, schedule: Q01DX005 (ip), vehicle: saline with Tween-80.
Where [5] appears, read: dose: 6.25 mg/kg/injection, schedule: Q01DX005 (ip), vehicle: Klucel (hydroxypropylcellulose) (HPC).
Where [6] appears, read: dose: 12.5 mg/kg/injection, schedule: Q01DX005 (ip), vehicle: Klucel (hydroxypropylcellulose) (HPC).
Where [7] appears, read: dose: 25.0 mg/kg/injection, schedule: Q01DX005 (ip), vehicle: Klucel (hydroxypropylcellulose) (HPC).
Where [8] appears, read: dose: 12.5 mg/kg/injection, schedule: Q01DX009 (ip), vehicle: Klucel (hydroxypropylcellulose) (HPC).
The mark [9] stands for this setting: dose: 25.0 mg/kg/injection, schedule: Q01DX009 (ip), vehicle: Klucel (hydroxypropylcellulose) (HPC).
The mark [10] stands for this setting: dose: 50.0 mg/kg/injection, schedule: Q01DX009 (ip), vehicle: Klucel (hydroxypropylcellulose) (HPC).
Where [11] appears, read: dose: 200.0 mg/kg/injection, schedule: Q01DX009 (ip), vehicle: Klucel (hydroxypropylcellulose) (HPC).
Setting [12] is: dose: 50.0 mg/kg/injection, schedule: Q01DX009 (ip), vehicle: saline.
The mark [13] stands for this setting: dose: 100.0 mg/kg/injection, schedule: Q01DX009 (ip), vehicle: saline.
Setting [14] is: dose: 200.0 mg/kg/injection, schedule: Q01DX009 (ip), vehicle: saline.
Where [15] appears, read: dose: 25.0 mg/kg/injection, schedule: Q01DX009 (ip), vehicle: saline with Tween-80.
[16] abbreviates: dose: 50.0 mg/kg/injection, schedule: Q01DX009 (ip), vehicle: saline with Tween-80.

In the case of `COC(=O)C(NC(=O)C(NC(=O)c1c2nc3c(C(=O)NC(C(=O)NC(C(=O)OC)C(C)C)C(C)O)ccc(C)c3oc-2c(C)c(=O)c1N)C(C)O)C(C)C` (configuration not stated), the T/C (dose: 0.05 mg/kg/injection, schedule: Q01DX009 (ip), vehicle: water) was 117 % of control; the T/C (dose: 0.1 mg/kg/injection, schedule: Q01DX009 (ip), vehicle: water) is 101 % of control; the T/C (dose: 0.2 mg/kg/injection, schedule: Q01DX009 (ip), vehicle: water) is 99 % of control; the T/C (dose: 0.4 mg/kg/injection, schedule: Q01DX009 (ip), vehicle: water) was 100 % of control; the T/C (dose: 0.8 mg/kg/injection, schedule: Q01DX009 (ip), vehicle: water) is 99 % of control; the T/C (dose: 1.6 mg/kg/injection, schedule: Q01DX009 (ip), vehicle: water) was 102 % of control and 90 % of control. Moreover, the T/C (dose: 3.2 mg/kg/injection, schedule: Q01DX009 (ip), vehicle: water) was 92 % of control; the T/C (dose: 6.4 mg/kg/injection, schedule: Q01DX009 (ip), vehicle: water) was 99 % of control; the T/C (dose: 12.8 mg/kg/injection, schedule: Q01DX009 (ip), vehicle: water) was 101 % of control.
With `CCCC(=O)OC1C=C2N3C(=O)C4CC56C(=CC(OC(C)=O)C7OC75)N4C(=O)C3CC26C2OC12` (configuration not stated), the T/C by setting is: (dose: 0.13 mg/kg/injection, schedule: Q01DX005 (ip), vehicle: Klucel (hydroxypropylcellulose) (HPC)) 100 % of control; (dose: 0.25 mg/kg/injection, schedule: Q01DX005 (ip), vehicle: Klucel (hydroxypropylcellulose) (HPC)) 100 % of control; (dose: 0.5 mg/kg/injection, schedule: Q01DX005 (ip), vehicle: Klucel (hydroxypropylcellulose) (HPC)) 100 % of control; (dose: 1.0 mg/kg/injection, schedule: Q01DX005 (ip), vehicle: Klucel (hydroxypropylcellulose) (HPC)) 107 % of control; (dose: 2.0 mg/kg/injection, schedule: Q01DX005 (ip), vehicle: Klucel (hydroxypropylcellulose) (HPC)) 99 % of control and 103 % of control; (dose: 4.0 mg/kg/injection, schedule: Q01DX005 (ip), vehicle: Klucel (hydroxypropylcellulose) (HPC)) 96 % of control.
In the case of `CCN(CC)Cc1c(OC)ccc2[nH]c3c4ccc(Cl)cc4ncc3c12`, the T/C by setting is: under setting [1], 109 % of control; under setting [2], 101 % of control; under setting [3], 106 % of control; under setting [4], 112 % of control.
For the compound `O=C(O)CNC(=O)CNC(=O)C(Cc1ccccc1)NC(=O)OCc1ccccc1` (stereo not drawn) (Cbz-[ξF]-Gly-Gly-OH), the T/C is, setting by setting: under setting [2], 100 % of control; under setting [3], 99 % of control; under setting [4], 91 % of control.
Take `C=CCP1(C)=NP(OCC(F)(F)F)(OCC(F)(F)F)=NP(OCC(F)(F)F)(OCC(F)(F)F)=N1` (configuration not stated): the T/C was 99 % of control (dose: 50.0 mg/kg/injection, schedule: Q01DX005 (ip), vehicle: Klucel (hydroxypropylcellulose) (HPC)); 101 % of control (dose: 100.0 mg/kg/injection, schedule: Q01DX005 (ip), vehicle: Klucel (hydroxypropylcellulose) (HPC)); 92 % of control (dose: 200.0 mg/kg/injection, schedule: Q01DX005 (ip), vehicle: Klucel (hydroxypropylcellulose) (HPC)).
As to `COc1cc(NC(C)CN(CC(C)C)CC(C)C)c2ncccc2c1Cl` (configuration not stated), the T/C (dose: 50.0 mg/kg/injection, schedule: Q01DX005 (ip), vehicle: saline) is 100 % of control; the T/C (dose: 100.0 mg/kg/injection, schedule: Q01DX005 (ip), vehicle: saline) is 103 % of control; the T/C (dose: 200.0 mg/kg/injection, schedule: Q01DX005 (ip), vehicle: saline) is 116 % of control.
As for `[CH3][Sn]1([CH3])[O]C2C(O)OC(CO)C(O)C2[O]1` (configuration not stated), the T/C was 108 % of control and 113 % of control under setting [5]; 110 % of control and 111 % of control (2×) under setting [6]; 109 % of control and 120 % of control and 121 % of control under setting [7].
Regarding `C=C1C(=O)OC2CC(C)C3OC3C(=O)C(C)(O)C(O)C(O)C12` (configuration not stated) (tested in a mixture with another compound), the T/C was 104 % of control (dose: 6.25 mg/kg/injection, schedule: Q01DX009 (ip), vehicle: Klucel (hydroxypropylcellulose) (HPC)); 101 % of control and 117 % of control under setting [8]; 110 % of control and 123 % of control under setting [9]; 123 % of control under setting [10]; 119 % of control under setting [11].
`OC1CN(CCCCCCN2CC(O)ON2)NO1` (configuration not stated): the T/C is, setting by setting: under setting [12], 93 % of control; under setting [13], 93 % of control; under setting [14], 97 % of control.
Turning to `O=c1[nH]c(=O)n(C2CC(O)C(CO)O2)cc1S` (configuration not stated), the T/C was 99 % of control and 101 % of control and 105 % of control (dose: 12.5 mg/kg/injection, schedule: Q01DX009 (ip), vehicle: saline); 100 % of control (2×) and 111 % of control (dose: 25.0 mg/kg/injection, schedule: Q01DX009 (ip), vehicle: saline); 101 % of control and 111 % of control and 118 % of control under setting [12].
For `C=C1C(=O)O[C@H]2C1[C@H](OC(=O)/C(C)=C\C)CC(=C)[C@@H]1C(=O)[C@H]3O[C@@]3(C)[C@@]12O` (some centres not stated), the T/C reads like this: (dose: 12.5 mg/kg/injection, schedule: Q01DX005 (ip), vehicle: saline + alcohol) 116 % of control and 117 % of control; (dose: 25.0 mg/kg/injection, schedule: Q01DX005 (ip), vehicle: saline + alcohol) 110 % of control and 121 % of control.
In the case of `CCNC(=O)OCc1c(Cl)nc2n1CCS2`, the T/C by setting is: (dose: 25.0 mg/kg/injection, schedule: Q01DX001 (ip), vehicle: Klucel (hydroxypropylcellulose) (HPC)) 103 % of control; (dose: 50.0 mg/kg/injection, schedule: Q01DX001 (ip), vehicle: Klucel (hydroxypropylcellulose) (HPC)) 110 % of control; (dose: 100.0 mg/kg/injection, schedule: Q01DX001 (ip), vehicle: Klucel (hydroxypropylcellulose) (HPC)) 105 % of control.
Regarding `COC(=O)c1cc(=O)nc(NN=C2c3ccccc3-c3ccccc32)s1`, the T/C is, setting by setting: (dose: 12.5 mg/kg/injection, schedule: Q01DX005 (ip), vehicle: saline with Tween-80) 97 % of control; under setting [1], 94 % of control; under setting [2], 88 % of control and 92 % of control.
Take `CN1CCCN(C)C1c1ccccc1O`: the T/C was 100 % of control (dose: 12.5 mg/kg/injection, schedule: Q01DX009 (ip), vehicle: saline sonified); 90 % of control (dose: 25.0 mg/kg/injection, schedule: Q01DX009 (ip), vehicle: saline sonified); 100 % of control (dose: 50.0 mg/kg/injection, schedule: Q01DX009 (ip), vehicle: saline sonified).
Turning to `CN(CCCCCl)C(=O)Oc1ccccc1`, the T/C is 102 % of control under setting [10]; 106 % of control (dose: 100.0 mg/kg/injection, schedule: Q01DX009 (ip), vehicle: Klucel (hydroxypropylcellulose) (HPC)); 99 % of control under setting [11].
Turning to `CCC(C)c1cnc(CC(C)C)c(=O)n1O` (configuration not stated), the T/C is, setting by setting: (dose: 6.25 mg/kg/injection, schedule: Q01DX009 (ip), vehicle: saline with Tween-80) 90 % of control; (dose: 12.5 mg/kg/injection, schedule: Q01DX009 (ip), vehicle: saline with Tween-80) 91 % of control; under setting [15], 94 % of control; under setting [16], 100 % of control.
As for `O.O.[Cl][Pt+2][Cl].[NH-]C1CC2CCC1C2.[NH-]C1CC2CCC1C2` (configuration not stated), the T/C (dose: 33.0 mg/kg/injection, schedule: Q04DX003 (ip), vehicle: saline with Tween-80) is 154 % of control and the T/C (dose: 50.0 mg/kg/injection, schedule: Q04DX003 (ip), vehicle: saline with Tween-80) is 150 % of control.
On to `O=C(NC(Cc1c[nH]c2ccccc12)C(=O)O)c1ccccc1[N+](=O)[O-]` (configuration not stated), for which the T/C was 93 % of control under setting [5], 108 % of control under setting [6] and 97 % of control under setting [7].
As for `CN(C)c1ccc(/C=C/c2c(F)cnc3ccccc23)cc1`, the T/C reads like this: under setting [8], 114 % of control; under setting [9], 101 % of control; under setting [10], 104 % of control.
On the same counts, the results for `C/C=C(/C)C(=O)OC1c2c(C)coc2CC23OC2CCC(C)C13C` (configuration not stated) are 98 % of control, 105 % of control and 99 % of control.
On to `O=C/C=C/c1ccc([N+](=O)[O-])cc1Cl`, for which the T/C by setting is: under setting [15], 104 % of control; under setting [16], 106 % of control; under setting [12], 115 % of control; (dose: 100.0 mg/kg/injection, schedule: Q01DX009 (ip), vehicle: saline with Tween-80) 106 % of control; under setting [13], 124 % of control; under setting [14], 124 % of control.
